US5679521A, “Steroid 5A-reductases” (priority 1995, dated 1997)
Positions count from the first letter of the chain named. Where “and” joins values, the source holds several entries; their conditions need not be identical. Equal values may be shown once.

Key:
[1] = test system: prostate extract and steroid 5α-reductase 1; experiment: finasteride inhibition of mixed aliquots of prostate extract and steroid 5α-reductase 1 extract; assay type: biochemical, human; conditions: aliquots with equivalent 5α-reductase activity mixed
[2] = target: T1, human 5α-reductase 2 (Homo sapiens, UniProt P31213); experiment: finasteride inhibition of 5α-reductase 2 expressed in human embryonic kidney 293 cells (FIG. 15B); assay type: biochemical
T1 construct: predicted to be a hydrophobic polypeptide of 254 amino acids; expressed in transfected cells; host or cells: human embryonic kidney 293 cells, pCMV expression vector
T1 sequence (P31213 1-254 L89V): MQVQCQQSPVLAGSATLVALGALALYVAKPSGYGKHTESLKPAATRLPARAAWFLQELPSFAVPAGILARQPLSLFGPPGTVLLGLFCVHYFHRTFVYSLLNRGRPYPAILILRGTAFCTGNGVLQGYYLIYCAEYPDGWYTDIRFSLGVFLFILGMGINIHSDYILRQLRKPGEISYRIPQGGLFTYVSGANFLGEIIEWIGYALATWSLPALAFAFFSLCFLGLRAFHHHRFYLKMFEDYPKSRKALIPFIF
Experimental: (§1) FIGS. 15A-15B. Characterization of expressed human 5α-reductase isozymes with regard to pH optima and finasteride inhibition. Expression plasmids containing the 5α-reductase 1 or 2 cDNAs (FIGS. 7 and 13, respectively) were transfected into human embryonic kidney 293 cells. […] Reductase enzyme activity obtained in extracts of transfected human embryonic kidney 293 cells in the absence of inhibitor was defined as 100%. In both panels, conversion into dihydrotestosterone was determined, after 10 minute incubations, by thin layer chromatography. Protein concentrations in cell extracts were measured as in Lowry, 1951.
(§2) Steroid 5α-Reductase Assay. […] Termination, organic extraction and TLC were performed as described in Example 1, using a chloroform-ethyl acetate (3:1, v/v) mobile phase in the TLC.
(§3) The properties of the two human steroid 5α-reductase isozymes were also compared directly, following expression in human embryonic kidney 293 cells.

[3] = target: T2, human 5α-reductase 2 (Homo sapiens, UniProt P31213, L89V); experiment: as above; assay type: biochemical; conditions: 5α-reductase 2, 293 cells
T2 construct: predicted to be a hydrophobic polypeptide of 254 amino acids; expressed in transfected cells; host or cells: human embryonic kidney 293 cells, pCMV expression vector
T2 sequence (P31213 1-254 L89V): T1 sequence (P31213 1-254 L89V)
Experimental: as §1, §2, §3

[4] = target: T3, human steroid 5α-reductase 1 (Homo sapiens, UniProt P18405); experiment: steroid 5α-reductase activity/inhibition in vitro, homogenates of COS cells expressing human steroid 5α-reductase 1 cDNA (Table III); conditions: apparent Ki, human enzyme; two [14C]testosterone concentrations; Dixon plots
T3 sequence (P18405 1-259): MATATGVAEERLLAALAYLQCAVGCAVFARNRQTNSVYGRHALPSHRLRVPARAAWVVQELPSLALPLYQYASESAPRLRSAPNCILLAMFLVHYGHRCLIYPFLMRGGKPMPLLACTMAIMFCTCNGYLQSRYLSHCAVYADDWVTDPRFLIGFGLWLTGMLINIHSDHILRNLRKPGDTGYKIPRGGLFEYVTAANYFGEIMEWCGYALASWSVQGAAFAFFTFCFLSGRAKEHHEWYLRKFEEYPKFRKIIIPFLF
Excerpt: (§4) Expression Vector Construction. A rat steroid 5α-reductase cDNA corresponding to nucleotides 1-1962 (see Example 1) was ligated into the pCMV4 expression vector (Andersson et al., 1989b). A human cDNA corresponding to nucleotides 1 to 842 of FIG. 7 was initially ligated into pCMV4. […] After amplification, the product was ligated into pCMV4.
(§5) Expression of Steroid 5α-Reductase 1 cDNAs in COS Cells. Simian COS-M6 cells were transfected as described by Andersson et al. (1989b). The assay of steroid 5α-reductase activity in intact cells was carried out as described in Example 1 except that [^14 C]-labeled steroid dissolved in ethanol were added to the transfected cell medium and subsequent organic extractions were carried out with dichloromethane. TLC and liquid scintillation counting were performed as described in Example 1.
(§6) To assay steroid 5α-reductase activity in vitro, cells were harvested 48 hours after transfection, washed once with phosphate buffered saline and either frozen in liquid N2 or homogenized directly with a Polytron in 10 mM potassium phosphate (pH 7.4), 150 mM KCl and 1 mM EDTA, at a protein concentration of 2 mg/ml. A typical assay contained 10 to 50 μg of cell homogenate protein in 0.5 ml of 0.1M potassium phosphate buffer (pH 6.6, rat enzyme; pH 7.0, human enzyme). Steroids were added in 5 μl ethanol, and the reaction was initiated by the addition of NADPH to a final concentration of 2-5 mM. Incubations were carried out for 10 min at 37° C. and terminated by the addition of 5 ml dichloromethane. Organic execrations and thin-layer chromatography analysis were as described above.
(§7) The apparent Km and Vmax values in this system were determined in vitro with five different steroid substrates (Table III).
(§8) The apparent Ki values were then determined for 4-aza-steroid (4-MA and MK-906) inhibition of 5α-reductases expressed in COS cells. […] The data obtained were analyzed using Dixon plots to determine the type of inhibition and the apparent Ki value (Dixon et al., 1979).
(§9) COS call transfaction, cell homogonate preparation, and enzyme assay were
(§10) carried out as described in Materials and Methods. Each Km value
(§11) represents the average of at least two experiments carried out on
(§12) different days using cell lysates prepared from different transfections.

[5] = test system: steroid 5α-reductase; conditions: Liang et al., 1985; cited from earlier work
[6] = test system: major human prostate 5α-reductase enzyme; conditions: Liang et al., 1985; cited from earlier work
[7] = target: T4, rat steroid 5α-reductase (Rattus norvegicus, UniProt P24008); design: the open reading frame would encode a hydrophobic protein of 255 amino acids; expressed in transfected cells; host or cells: simian COS-M6 cells, pCMV4 vector; conditions: simian COS cells; Andersson & Russell, 1990; cited from earlier work
T4 sequence (P24008 5-259): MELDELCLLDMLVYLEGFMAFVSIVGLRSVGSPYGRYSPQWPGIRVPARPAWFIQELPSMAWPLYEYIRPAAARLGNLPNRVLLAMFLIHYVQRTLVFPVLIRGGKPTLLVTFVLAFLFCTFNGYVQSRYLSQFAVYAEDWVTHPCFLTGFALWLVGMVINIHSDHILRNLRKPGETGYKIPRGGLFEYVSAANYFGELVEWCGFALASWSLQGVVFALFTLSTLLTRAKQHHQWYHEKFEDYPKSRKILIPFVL

[8] = target: T4, rat steroid 5α-reductase; experiment: steroid 5α-reductase activity/inhibition in vitro, homogenates of COS cells expressing rat cDNA (Table III); conditions: apparent Ki, rat enzyme; two [14C]testosterone concentrations; Dixon plots
Excerpt: as §4, §5, §6, §7, §8, §9, §10, §11, §12

[9] = target: T5, human 5α-reductase 1 (Homo sapiens, UniProt P18405); experiment: finasteride inhibition of 5α-reductase 1 expressed in human embryonic kidney 293 cells (FIG. 15B); assay type: biochemical
T5 construct: Human 5α-reductase 1 is 259 residues long; expressed in transfected cells; host or cells: human embryonic kidney 293 cells
T5 sequence (P18405 1-259): T3 sequence (P18405 1-259)
Experimental: as §1, §2, §3

[10] = target: T4, rat steroid 5α-reductase; experiment: steroid 5α-reductase assay in intact transfected COS cells, rat cDNA; assay type: cell-based; design: the open reading frame would encode a hydrophobic protein of 255 amino acids; expressed in transfected cells; host or cells: simian COS-M6 cells, pCMV4 vector; conditions: rat enzyme expressed in COS cells; 37° C., 2 hr
Excerpt: as §4, §5
COS cells were transiently transfected with expression vectors harboring the rat or human steroid 5α-reductase 1 cDNAs, or with the pCMV4 vector alone.
IC50 values for MK-906 and 4-MA inhibition of 5α-reductases expressed in COS cells were also determined. […] See Example 6 and FIG. 15, for further analysis of 4-aza-steroid inhibition.

[11] = target: T3, human steroid 5α-reductase 1; experiment: finasteride inhibition of steroid 5α-reductase 1 expressed in COS cells (Example 6); assay type: biochemical; design: Human 5α-reductase 1 is 259 residues long; expressed in transfected cells; host or cells: simian COS-M6 cells, pCMV4 vector
[12] = target: T6, human prostate 5α-reductase (prostate extract) (Homo sapiens, UniProt P31213); experiment: finasteride inhibition of 5α-reductase in human prostate extract; assay type: biochemical
T6 construct: Prostate tissue was obtained from subjects undergoing surgical treatment for benign prostatic hyperplasia; from tissue; host or cells: human prostate (benign prostatic hyperplasia), membrane extract
T6 sequence (P31213 1-254): T1 sequence (P31213 1-254 L89V) with V89L

In the case of `CC(C)(C)NC(=O)[C@H]1CC[C@H]2[C@@H]3CC[C@H]4NC(=O)C=C[C@]4(C)[C@H]3CC[C@]12C` [MK-906, 17β-N-t-butylcarbamoyl-4-aza-5α-androst-1-en-3-one], the “inhibition curve of mixed extracts” value [1] is reported as “biphasic”, the IC50 [2] is reported as about 30 nM and the Ki [3] is reported as about 5 nM. The Ki [4] was 340 to 620 nM and 340 nM and 380 nM and 620 nM, the type of inhibition [5] was “competitive inhibitors” and the type of inhibition [6] was “competitive inhibitor”. For the same molecule, the “inhibition of rat steroid 5α-reductase” value [7] was “inhibited”, the Ki [8] was 3 to 5 nM and 3 nM and 4 nM and 5 nM and the IC50 [9] was about 900 nM. The Ki ([9]; 5α-reductase 1, 293 cells) was about 230 nM, the “IC50 inhibition, relative potency of MK-906 and 4-MA” value [10] was “equipotent” and the IC50 [11] was 10000 nM. The IC50 [12] was 10 nM.
